Article PMC5729429, “Gimatecan exerts potent antitumor activity against gastric cancer in vitro and in vivo via AKT and MAPK signaling pathways” (Journal of Translational Medicine, 2017)

Tests used:
MGC803 cells = assay: Cell viability assay (CCK-8), MGC803; type: cell-based; conditions: Homo sapiens, MGC-803, Fig. S1B 48 h exposure, 0–1 µM, read-out: IC50 antiproliferative effect
Method: Human GC cell lines SNU-1, HGC27 and MGC803 were purchased from Peking Union Medical College, and the NCI-N87 cell line was a gift from You-yong Lv, Ph.D. (Peking University Cancer Hospital and Institute). Cells were cultured in RPMI 1640 medium and Dulbecco’s Modified Eagle Medium (Gibco-BRL, MD, USA), respectively, supplemented with 10% fetal bovine serum (Gibco-BRL), 100 U/ml penicillin (Gibco-BRL) and […] streptomycin (Gibco-BRL). Cells were incubated in a humidified incubator (37 °C) supplemented with 5% CO2.
[…] Cell viability was measured using a Cell Counting Kit-8 (Dojindo, Kumamoto, Japan) according to the manufacturer’s instructions. Absorbance at 450 nm was measured using a microplate spectrophotometer. All experiments were repeated at least three times.

[1] = test system: AKT and MAPK signaling pathways; assay: Western blot of AKT and MAPK pathway molecules in GC cells; type: cell-based, human; conditions: 48 h
Method: SNU-1, HGC27 and NCI-N87 cells were starved in serum-free medium overnight, exposed to inhibitors for 48 h and harvested at 70–80% confluence. Total protein was extracted from cells or xenograft tissues on ice, using RIPA Lysis Buffer (Beyotime, Shanghai, China) supplemented with complete protease inhibitor and phosphatase inhibitor cocktail (Roche, Basel, Switzerland). Protein concentration was measured using a BCA Protein Assay Kit (Beyotime, Shanghai, China), and 50 μg protein from each sample was separated by 10% SDS-PAGE. After transfer to nitrocellulose membranes (GE Healthcare, Piscataway, NJ), samples were incubated with corresponding primary antibodies diluted in 5% BSA at 4 °C overnight and then with secondary antibodies at room temperature for 1 h. Proteins were visualized with a chemiluminescent detection system (GE Healthcare), using ECL plus Western blot reagents (GE Healthcare). Western-blotting bands were quantified and normalized by ImageJ software.
Cells were starved in serum-free medium overnight, exposed to gimatecan or irinotecan for 48 h and harvested at 70–80% confluence. Total protein of SNU-1 and NCI-N87 was extracted and the expression of TopI, pAKT, pMEK, pERK, p-p38 MAPK and pJNK2 were assessed by western-blotting followed by quantification and normalization by ImageJ. All data are mean ± SD of three independent experiments. Compared with controls, *p < 0.05

[2] = test system: normal immortalized gastric epithelial cell line; assay: Growth inhibition of normal gastric epithelial cells; type: cell-based; conditions: data not shown

SMILES: CC[C@@]1(O)C(=O)OCc2c1cc1n(c2=O)Cc2c-1nc1ccccc1c2/C=N/OC(C)(C)C [Gimatecan, 7-t-butoxyiminomethylcamptothecin]
- IC50 (MGC803 cells): 3.29 nM
- effect on AKT and MAPK pathway molecules ([1]; NCI-N87 cells): only inhibited expression of pAKT and pERK
- effect on AKT and MAPK pathway molecules ([1]; SNU-1 and HGC27 cells, pAKT, pMEK, pERK inhibited, p-p38 and pJNK2 upregulated): significantly inhibited the AKT pathway and activated the JNK2 and p38 MAPK pathway
- growth inhibition in normal cells [2]: weak growth inhibition
